Measured values as given in patent publication US20230295133A1, “PROCESS FOR PREPARING A COMPOUND USEFUL TO TREAT MYCOSES” (PULMOCIDE LIMITED, priority 2014, published 2023).
In brackets after ≈: the same amount, converted by molar mass.

Assays:
[1] = tested on: Chaectomium globosum ATCC44699; test: Fungus panel screening, CLSI broth microdilution; format: cell-based; conditions: for MIC50: 50% inhibition by visual inspection (CLSI); for MIC: 100% inhibition by visual inspection (CLSI), read-out: MIC100
Method: Fungus panel screening was conducted by Eurofins Panlabs Inc. The MIC and MIC50 values of the test articles were determined following the guidelines of the Clinical and Laboratory Standards Institute, broth microdilution methods for yeast (CLSI M27-A2), (CLSI, 2002) and for filamentous fungi (CLSI M38-A), (CLSI, 2008).

[2] = tested on: Aspergillus fumigatus (NCPF2010) invasion; test: Aspergillus fumigatus infection of human alveoli bilayers (transwells), GM in lower chamber; format: cell-based; conditions: Posaconazole 0.01 µg/mL lower chamber
Method: In vitro models of human alveoli, consisting of a bilayer of human alveolar epithelial cells and endothelial cells, were prepared as previously described (Hope et al., 2007). This system allows administration of a test compound to the upper (“air” space) and/or lower (“systemic” space) compartments. This flexibility has been exploited to explore the effects of combination treatments by dosing compound Example 1 to the upper chamber and posaconazole or other anti-fungal agents to the lower chamber. Primary human pulmonary artery endothelial cells (HPAEC) were harvested and diluted to 10^6 cells/mL in EGM-2 media (Lonza, Basel, Switzerland). Transwells were inverted and the cell suspension (100 µL/well) was applied to the base of each transwell. The inverted transwells were incubated at RT within a flow hood for 2 hr after which they were turned upright. EGM-2 media was added to the lower (700 µL/well) and upper (100 µL/well) compartments and the transwells were incubated for 48 hr (37° C., 5% CO2). The EGM-2 media in the lower compartment was then replaced with fresh EGM-2 media. A549 cells were harvested and diluted to 5×10^5 cells/mL in 10% EBM, then added to the upper compartment (100 µL/well) of all transwells and the plates incubated for 72 hr (37° C., 5% CO2). Conidia of aspergillus fumigatus (the itraconazole sensitive strain NCPF2010 and the itraconazole resistant strain TR34-L98H) were cultured separately in Sabouraud dextrose agar for 3 days. A stock conidia suspension of either strain was prepared from a Sabouraud dextrose agar culture by washing with PBS-tween (10 mL; PBS containing 0.05% Tween-20, 100 U/mL Penicillin and 100 U/mL Streptomycin). The conidia count was assessed using a Neubauer haemocytometer and adjusted to 10^6 conidia/mL with PBS. A working stock of conidia was prepared in EBM (conc of 10^5 conidia/mL) immediately prior to use.
Test and reference compounds (or neat DMSO as the vehicle) were added to the appropriate wells of 24-well plates (3 µL/well containing 600 µL of 2% FBS EBM) for lower compartment treatment and to 96-well plates (1 µL/well containing 200 µL of 2% FBS EBM) for the treatment of the upper compartment, to provide a final DMSO concentration of 0.5%. The media in the upper compartment was aspirated and that containing the appropriate test and reference compounds, or vehicle, were added (100 µL/well). Transwells were then transferred into the 24-well plate containing the test and reference compounds or DMSO vehicle. After incubation for 1 hr (35° C., 5% CO2) the conidia suspension (10 µL/well) was added to the upper compartment of each transwell. Plates were then incubated for 24 hr (35° C., 5% CO2). Supernatants from each compartment (5 µL/compartment) were collected and stored (-20° C.). Media was replaced daily after collection of the supernatants and all wells were treated with test and reference compounds or with DMSO, as described above, for 3 days. Samples continued to be collected until fungal growth was visible by eye in all transwells. The levels of GM in the supernatant in lower compartment were then measured by ELISA (BioRad, CA, USA) as an index of aspergillus fumigatus invasion.

[3] = tested on: aspergillus fumigatus (ATCC 13073 [strain: NIH 5233]); test: In vivo anti-fungal activity, prophylactic and therapeutic treatment of infected immunocompromised neutropenic mice; set-up: species or system A/J mice; conditions: for % Inhibition versus Infected Controls, GM in BALF / % Inhibition versus Infected Controls, GM in serum / % Inhibition versus Infected Controls, Lung Fungal Load: prophylactic treatment (days 0, 1, 2 and 3); for Cell numbers in BALF, Macrophage / Cell numbers in BALF, Neutrophil / TNFα conc in serum: mean ± SEM
[4] = tested on: aspergillus fumigatus (ATCC 13073 [strain: NIH 5233]); test: Survival of severely immunosuppressed neutropenic infected mice, monotherapy and combination; format: in vivo, A/J mice; conditions: Example 1 0.4 mg/mL (in); Posaconazole 1 mg/kg (po); once daily days 1-6
Method: On day 0, animals were infected intranasally with 35 µL of the spore suspension (1.67 × 10^8 spores/mL in physiological saline) of aspergillus fumigatus (ATCC 13073 [strain: NIH 5233]). Compound Example (I), prepared as a suspension in isotonic saline (0.4 mg/mL), was dosed once daily by an intra-nasal injection (35 µL/mouse) on days 1-6 after infection. Posaconazole (1 mg/kg) was given orally once daily on days 1-6 after infection. Body weight and survival were monitored daily up to day 7.

[5] = tested on: Aspergillus fumigatus NCPF2010; test: Broth microdilution assay (modified EUCAST); format: cell-based; conditions: Aspergillus fumigatus, NCPF2010; broth microdilution assay, n = 3; read-out: MIC75 against Aspergillus fumigatus isolate NCPF2010
Method in brief: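 Spores from 3-day Sabouraud cultures (working suspension 2 × 10^5 spores/mL) were added to an equal volume of RPMI-1640 (2 mM L-glutamine, 0.5% BSA, 2% glucose, 0.165 M MOPS, pH 7) containing compound, in quadruplicate. After 48 hr at 35 °C, OD530 gave percent inhibition. MIC50, MIC75 and MIC90 came from concentration-response curves.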

[6] = treatment day 1, Example 1 0.1 µg/mL upper chamber
[7] = treatment day 6, Example 1 0.1 µg/mL upper chamber
[8] = prophylactic treatment, 0.08 mg/mL
[9] = prophylactic treatment, 0.4 mg/mL
[10] = prophylactic treatment, 2 mg/mL
[11] = therapeutic treatment (days 1, 2 and 3), 0.4 mg/mL
[12] = therapeutic treatment, 0.4 mg/mL
[13] = therapeutic treatment, 10 mg/mL

`Cc1cc(N2CCN(c3ccc(C(=O)Nc4ccc(F)cc4)cc3)CC2)ccc1OC[C@@H]1CO[C@@](Cn2cncn2)(c2ccc(F)cc2F)C1` [Example 1, 4-(4-(4-(((3R,5R)-5-((1H-1,2,4-Triazol-1-yl)Methyl)-5-(2,4-Difluorophenyl)Tetra Hydrofuran-3-yl)Methoxy)-3-Methylphenyl)Piperazin-1-yl)-N-(4-Fluorophenyl) Benzamide] was tested, and the MIC50 [1] was 0.063 µg/mL (≈ 0.0923 µM), the MIC [1] was over 8 µg/mL and the “GM Levels in the Lower Chamber, OD value” ([2]; treatment day 0, Example 1 0.1 µg/mL upper chamber) was 0 OD. The “GM Levels in the Lower Chamber, % inhibition vs. control” value [2, 6] was 86%, the “GM Levels in the Lower Chamber, OD value” [2, 6] was 0.091 OD and the “GM Levels in the Lower Chamber, % inhibition vs. control” value ([2]; treatment day 2, Example 1 0.1 µg/mL upper chamber) was 3.4%. For the same compound, the “GM Levels in the Lower Chamber, % inhibition vs. control” value ([2]; treatment day 3, Example 1 0.1 µg/mL upper chamber) was 3.7%, the “GM Levels in the Lower Chamber, % inhibition vs. control” value ([2]; treatment day 4, Example 1 0.1 µg/mL upper chamber) was 4.5% and the “GM Levels in the Lower Chamber, % inhibition vs. control” value ([2]; treatment day 5, Example 1 0.1 µg/mL upper chamber) was 0.3%. For the same compound, the “GM Levels in the Lower Chamber, % inhibition vs. control” value [2, 7] was -0.3%, the “GM Levels in the Lower Chamber, OD value” [2, 7] was 1.18 OD and the “GM Levels in the Lower Chamber, % inhibition vs. control” value ([2]; treatment day 7, Example 1 0.1 µg/mL upper chamber) was 0.9%. For the same compound, the “GM Levels in the Lower Chamber, % inhibition vs. control” value ([2]; treatment day 8, Example 1 0.1 µg/mL upper chamber) was 2.8%, the “% Inhibition versus Infected Controls, GM in BALF” value ([3]; 0.4 mg/mL) was 92% and the “% Inhibition versus Infected Controls, GM in serum” value ([3]; 0.4 mg/mL) was 95%. The “% Inhibition versus Infected Controls, Lung Fungal Load” value ([3]; 0.4 mg/mL) was 81%, the “Macrophage in BALF, % inhibition” value [3, 8] was 38% and the “Neutrophil in BALF, % inhibition” value [3, 8] was 24%. For the same compound, the “Cell numbers in BALF, Macrophage” value [3, 8] was 0.40 ± 0.15 ×10^5/mL, the “Cell numbers in BALF, Neutrophil” value [3, 8] was 0.37 ± 0.04 ×10^5/mL and the “Macrophage in BALF, % inhibition” value [3, 9] was 51%. For the same compound, the “Neutrophil in BALF, % inhibition” value [3, 9] was 47%, the “Cell numbers in BALF, Macrophage” value [3, 9] was 0.32 ± 0.07 ×10^5/mL and the “Cell numbers in BALF, Neutrophil” value [3, 9] was 0.26 ± 0.12 ×10^5/mL. The “TNFα conc in serum” value [3, 9] was 7.3 ± 3.5 pg/mL, the “Macrophage in BALF, % inhibition” value [3, 10] was 60% and the “Neutrophil in BALF, % inhibition” value [3, 10] was 55%. For the same compound, the “Cell numbers in BALF, Macrophage” value [3, 10] was 0.26 ± 0.05 ×10^5/mL, the “Cell numbers in BALF, Neutrophil” value [3, 10] was 0.22 ± 0.04 ×10^5/mL and the “TNFα conc in serum” value [3, 10] was 4.7 ± 0.4 pg/mL. The “% Inhibition versus Infected Control, GM in BALF” value [3, 11] was 94%, the “% Inhibition versus Infected Control, GM in serum” value [3, 11] was 91% and the “% Inhibition versus Infected Control, Lung Fungal Load” value [3, 11] was 97%. For the same compound, the “Macrophage in BALF, % inhibition” value [3, 12] was 34%, the “Neutrophil in BALF, % inhibition” value [3, 12] was 22% and the “Cell numbers in BALF, Macrophage” value [3, 12] was 0.43 ± 0.05 ×10^5/mL. The “Cell numbers in BALF, Neutrophil” value [3, 12] was 0.38 ± 0.04 ×10^5/mL, the “TNFα conc in serum” value [3, 12] was 6.2 ± 0.5 pg/mL and the “Macrophage in BALF, % inhibition” value ([3]; therapeutic treatment, 2 mg/mL) was 38%. For the same compound, the “Neutrophil in BALF, % inhibition” value ([3]; therapeutic treatment, 2 mg/mL) was 31%, the “Cell numbers in BALF, Macrophage” value ([3]; therapeutic treatment, 2 mg/mL) was 0.40 ± 0.11 ×10^5/mL and the “Cell numbers in BALF, Neutrophil” value ([3]; therapeutic treatment, 2 mg/mL) was 0.34 ± 0.05 ×10^5/mL. For the same compound, the “TNFα conc in serum” value ([3]; therapeutic treatment, 2 mg/mL) was 5.5 ± 0.7 pg/mL, the “Macrophage in BALF, % inhibition” value [3, 13] was 51% and the “Neutrophil in BALF, % inhibition” value [3, 13] was 45%. The “Cell numbers in BALF, Macrophage” value [3, 13] was 0.32 ± 0.07 ×10^5/mL, the “Cell numbers in BALF, Neutrophil” value [3, 13] was 0.27 ± 0.08 ×10^5/mL and the “TNFα conc in serum” value [3, 13] was 4.9 ± 0.6 pg/mL. The Median survival [4] was 6 days, the “No. of survivors on day 7” value [4] was 0/6 and the “Survivors on day 7 (%)” value [4] was 0%.

`CC[C@@H]([C@H](C)O)n1ncn(-c2ccc(N3CCN(c4ccc(OC[C@@H]5CO[C@@](Cn6cncn6)(c6ccc(F)cc6F)C5)cc4)CC3)cc2)c1=O` [Posaconazole, reference compound] was tested, and the MIC [5] was 0.0153 µM (≈ 0.0107 µg/mL), the MIC50 [1] was 0.13 µg/mL (≈ 0.186 µM) and the MIC [1] was 0.25 µg/mL (≈ 0.357 µM). For the same compound, the “% Inhibition versus Infected Controls, GM in BALF” value ([3]; 0.4 mg/mL) was 20%, the “% Inhibition versus Infected Controls, GM in serum” value ([3]; 0.4 mg/mL) was 34% and the “% Inhibition versus Infected Controls, Lung Fungal Load” value ([3]; 0.4 mg/mL) was 44%. For the same compound, the Median survival [4] was 6.5 days, the “No. of survivors on day 7” value [4] was 0/6 and the “Survivors on day 7 (%)” value [4] was 0%.
